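How tested: cells in 96-well plates exposed to compound for 48 hours at five concentrations. TGI is the concentration that stops growth completely.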
Columns and labels:
Assay in all cases: inhibition of tumour cell growth, NCI panel, 48 h
[1] = system: 786-0 renal
[2] = system: A498 renal
[3] = system: A549 NSCLC
[4] = system: ACHN renal
[5] = system: BT-549 breast
[6] = system: CAKI-1 renal
[7] = system: CCRF-CEM leukemia
[8] = system: COLO 205 colon
[9] = system: DU-145 prostate
[10] = system: EKVX NSCLC
[11] = system: HCT-116 colon
[12] = system: HCT-15 colon
[13] = system: HL-60(TB) leukemia
[14] = system: HOP-62 NSCLC
[15] = system: HS 578T breast
[16] = system: HT29 colon
[17] = system: IGROV1 ovarian
[18] = system: K-562 leukemia
[19] = system: KM12 colon
[20] = system: LOX IMVI melanoma
[21] = system: M14 melanoma
[22] = system: MALME-3M melanoma
[23] = system: MCF7 breast
[24] = system: MDA-MB-231 breast
[25] = system: MDA-MB-435
[26] = system: MOLT-4 leukemia
[27] = system: NCI-H226 lung
[28] = system: NCI-H23 lung
[29] = system: NCI-H460 lung
[30] = system: NCI-H522 lung
[31] = system: NCI/ADR-RES ovarian
[32] = system: OVCAR-3 ovarian
[33] = system: OVCAR-4 ovarian
[34] = system: OVCAR-5 ovarian
[35] = system: OVCAR-8 ovarian
[36] = system: PC-3 prostate
[37] = system: RPMI-8226 leukemia
[38] = system: RXF 393 renal
[39] = system: SF-295 CNS
[40] = system: SF-539 CNS
[41] = system: SK-MEL-2 melanoma
[42] = system: SK-MEL-28 melanoma
[43] = system: SK-MEL-5 melanoma
[44] = system: SK-OV-3 ovarian
[45] = system: SN12C renal
[46] = system: SNB-19 CNS
[47] = system: SNB-75 CNS
[48] = system: SR leukemia
[49] = system: SW-620 colon
[50] = system: T-47D breast
[51] = system: TK-10 renal
[52] = system: U251 CNS
[53] = system: UACC-257 melanoma
[54] = system: UO-31 renal

O=C(Nc1nnc(-c2ccc(Cl)cc2)o1)C(SC(=S)N1CCOCC1)c1ccccc1 (centres undefined)
TGI [1]: > 100 µM | TGI [2]: 56.5 µM | TGI [3]: 81.3 µM | TGI [4]: 83.5 µM | TGI [5]: 62.5 µM | TGI [6]: > 100 µM | TGI [7]: > 100 µM | TGI [8]: 28.8 µM | TGI [9]: > 100 µM | TGI [10]: 59.7 µM | TGI [11]: 26.5 µM | TGI [12]: > 100 µM | TGI [13]: 25.7 µM | TGI [14]: > 100 µM | TGI [15]: > 100 µM | TGI [16]: 78.3 µM | TGI [17]: > 100 µM | TGI [18]: > 100 µM | TGI [19]: > 100 µM | TGI [20]: 48.2 µM | TGI [21]: > 100 µM | TGI [22]: > 100 µM | TGI [23]: > 100 µM | TGI [24]: > 100 µM | TGI [25]: > 100 µM | TGI [26]: > 100 µM | TGI [27]: 56.4 µM | TGI [28]: 70.6 µM | TGI [29]: 53.3 µM | TGI [30]: 48.9 µM | TGI [31]: 90.7 µM | TGI [32]: 30.2 µM | TGI [33]: > 100 µM | TGI [34]: 88.2 µM | TGI [35]: > 100 µM | TGI [36]: 55.1 µM | TGI [37]: > 100 µM | TGI [38]: > 100 µM | TGI [39]: 94.4 µM | TGI [40]: 34.1 µM | TGI [41]: 44.7 µM | TGI [42]: > 100 µM | TGI [43]: 26.6 µM | TGI [44]: > 100 µM | TGI [45]: 42.7 µM | TGI [46]: > 100 µM | TGI [47]: > 100 µM | TGI [48]: > 100 µM | TGI [49]: > 100 µM | TGI [50]: > 100 µM | TGI [51]: > 100 µM | TGI [52]: 77.2 µM | TGI [53]: > 100 µM | TGI [54]: 30 µM

— PubChem BioAssay (NCI)
